Assay results taken from patent publication US20030139433A1, “Method for the treatment of overactive bladder” (priority 2000, published 2003).
Values joined by “and” are separate entries in the source; they are usually repeats but may differ in a detail not shown here. Equal values may be shown once.

What was measured:
overactive bladder = conditions: OAB patients; cited from earlier work
BANK-induced dyspnea = BANK-induced dyspnea in conscious guinea pigs; type: in vivo, guinea pig; conditions: for ED50: Cavia porcellus
Description: Dyspnea (labored abdominal breathing) was induced in conscious guinea pigs by aerosol administration of BANK, as previously described (Kusner, et al. Euro. J. Pharmacol. 210:299-306,1992). All animals were pretreated with atropine, 10 mg/kg ip 45 minutes; indomethacin, 10 mg/kg ip 30 minutes; propranolol, 5 mg/kg ip 30 minutes; and thiorphan, 1 mg/ml aerosol for 5 minutes duration, starting 15 minutes prior to challenge in order to block muscarinic receptors, cyclooxygenase, beta-adrenergic receptors, and neutral endopeptidase (EC 3.4.24.11), respectively. Animals were pretreated with Compound or vehicle at appropriate times before challenge with aerosolized BANK for 780 seconds. BANK was administered to six animals simultaneously by being aerosolized with a DeVilbiss ultrasonic nebulizer into an air stream flowing into a Plexiglas chamber at a rate of 2 liter/min. The time required for dyspnea to occur was recorded for each animal. […] Vehicle pretreated control animals were included in each experiment. Results are reported in % protection values where: [formula]

[1] = biological target: T1, NK2 receptor, human bronchus (Homo sapiens, UniProt P21452); assay: NK2 receptor antagonism in human bronchus; conditions: read-out: -log molar KB (converted)
T1 construct: from tissue; host or cells: human bronchus
T1 sequence (P21452 1-398): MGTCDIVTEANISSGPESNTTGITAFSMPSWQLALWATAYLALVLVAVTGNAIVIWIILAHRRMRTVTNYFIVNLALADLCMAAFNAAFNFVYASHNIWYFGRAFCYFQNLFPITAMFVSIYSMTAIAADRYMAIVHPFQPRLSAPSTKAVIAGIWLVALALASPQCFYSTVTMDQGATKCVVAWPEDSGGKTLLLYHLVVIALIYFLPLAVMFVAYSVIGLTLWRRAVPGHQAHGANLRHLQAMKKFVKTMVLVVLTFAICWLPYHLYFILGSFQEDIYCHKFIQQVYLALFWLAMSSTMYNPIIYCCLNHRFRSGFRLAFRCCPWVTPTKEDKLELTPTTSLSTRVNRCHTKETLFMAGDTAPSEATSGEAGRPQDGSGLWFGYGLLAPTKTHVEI

[2] = test system: BANK-induced bladder contraction; assay: In vivo bladder contraction inhibition in rats (BANK-induced); design: species or system rat
NK1 receptors = biological target: T2, NK1 receptors (Homo sapiens, UniProt P25103); assay: Inhibition of binding of a tritiated derivative of SP in a tissue preparation selective for NK1 receptors; conditions: read-out: concentration at which 50% inhibition of binding of SP was achieved
T2 construct: from tissue; host or cells: unnamed tissue preparation selective for NK1 receptors
Excerpt: The specificity of inhibition by the Compound was shown by inhibiting the binding of tritiated NKA at the NK2 receptor compared to inhibition of binding of a tritiated derivative of SP in a tissue preparation selective for NK1 receptors.

[3] = test system: BANK-induced bronchoconstriction; assay: Pulmonary mechanics in anesthetized guinea pigs, BANK-induced bronchoconstriction; type: in vivo, guinea pig
[4] = biological target: T3, NK2 receptor of rabbit pulmonary artery (Oryctolagus cuniculus, UniProt P79218); assay: Inhibition of NK2 receptor-mediated contraction of rabbit pulmonary artery (agonist BANK); conditions: endothelium removed, read-out: -log molar KB (converted)
T3 construct: The left and right branches of the pulmonary artery were obtained from each animal; from tissue; host or cells: rabbit pulmonary artery rings, endothelium removed
T3 sequence (P79218 1-384): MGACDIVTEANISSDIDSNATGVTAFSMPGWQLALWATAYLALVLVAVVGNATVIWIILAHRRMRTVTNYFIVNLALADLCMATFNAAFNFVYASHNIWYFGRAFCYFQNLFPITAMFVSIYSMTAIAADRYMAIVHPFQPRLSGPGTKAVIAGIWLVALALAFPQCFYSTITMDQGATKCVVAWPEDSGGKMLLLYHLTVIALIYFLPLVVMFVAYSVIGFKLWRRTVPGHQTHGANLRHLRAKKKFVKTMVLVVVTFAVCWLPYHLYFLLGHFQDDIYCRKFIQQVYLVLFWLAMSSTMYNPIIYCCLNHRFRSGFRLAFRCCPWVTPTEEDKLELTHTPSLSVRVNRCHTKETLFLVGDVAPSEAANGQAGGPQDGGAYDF
Description: Inhibition of NK2 Receptor-Mediated Contraction of Rabbit Pulmonary Artery:
Male New Zealand white rabbits were administered a lethal injection of Nembutal, (60 mg/kg) into a cannulated ear vein. Heparin, 0.0025 mL/kg of a 1000 U/ml solution, was injected into the ear vein prior to Nembutal in order to decrease blood coagulation. The left and right branches of the pulmonary artery were obtained from each animal. The segments, with or without endothelium, were suspended as rings in water-jacketed tissue baths maintained at 37° C. containing physiological salt solution of the following composition (mM): NaCl (119.0); KCl (4.6); CaCl2 (1.8); MgCl2 (0.5); NaH2PO4 (1.0); NaHCO3 (25.0); glucose (11.0); and gassed continuously with 95% O2-5% CO2. […] Changes in tension were measured on a Grass polygraph via Grass FT-03 force transducers.
(§1) To study NK2-mediated contraction, the vascular endothelium was removed and beta-Ala^8-NKA (“BANK”) was used as agonist. […] The response to each concentration of ASMSP was expressed as a percentage of the total relaxation induced by papaverine. […] Apparent KB values for the compound were calculated using the standard equation: KB=[antagonist]/(dose ratio−1), where dose ratio was equal to antilog [(−log molar EC50 without antagonist)−(−log molar EC50 with antagonist)]. The resulting KB values are expressed as −log molar KB.

NK1 receptor = assay: NK1 receptor-mediated relaxation of rabbit pulmonary artery induced by ASMSP
Description: Male New Zealand white rabbits were administered a lethal injection of Nembutal, (60 mg/kg) into a cannulated ear vein. Heparin, 0.0025 mL/kg of a 1000 U/ml solution, was injected into the ear vein prior to Nembutal in order to decrease blood coagulation. The left and right branches of the pulmonary artery were obtained from each animal. The segments, with or without endothelium, were suspended as rings in water-jacketed tissue baths maintained at 37° C. containing physiological salt solution of the following composition (mM): NaCl (119.0); KCl (4.6); CaCl2 (1.8); MgCl2 (0.5); NaH2PO4 (1.0); NaHCO3 (25.0); glucose (11.0); and gassed continuously with 95% O2-5% CO2. Initial tension placed on each tissue was 2 gm, which was maintained throughout a 0.5 hour equilibration period. Changes in tension were measured on a Grass polygraph via Grass FT-03 force transducers.
as §1

human NK2 receptor = biological target: T4, human NK2 receptor (Homo sapiens, UniProt P21452); assay: Neurokinin receptor binding assay, 3H-NKA binding to MEL cell membranes; conditions: tritiated NKA; read-out: Ki, concentration at which 50% inhibition of binding of NKA was achieved
T4 construct: expressed in transfected cells; host or cells: Mouse Erythroleukemia (MEL) cells, membrane preparation (MELM)
T4 sequence (P21452 1-398): T1 sequence (P21452 1-398)

[5] = Side-effects in laboratory test animals; type: in vivo; conditions: several multiples of the minimum effective dose

T2 sequence (P25103 whole entry): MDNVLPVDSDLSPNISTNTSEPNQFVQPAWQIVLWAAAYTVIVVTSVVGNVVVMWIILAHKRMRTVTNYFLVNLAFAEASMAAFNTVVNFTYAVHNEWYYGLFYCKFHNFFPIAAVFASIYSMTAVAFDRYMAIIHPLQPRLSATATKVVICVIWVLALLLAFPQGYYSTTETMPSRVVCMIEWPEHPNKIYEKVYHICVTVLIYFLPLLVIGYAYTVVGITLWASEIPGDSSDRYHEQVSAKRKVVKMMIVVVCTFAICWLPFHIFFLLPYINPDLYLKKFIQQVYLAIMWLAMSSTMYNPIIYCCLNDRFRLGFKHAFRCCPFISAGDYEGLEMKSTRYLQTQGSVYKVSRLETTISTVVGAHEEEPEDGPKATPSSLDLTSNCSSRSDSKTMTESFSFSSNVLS

Row | Compound | adverse effects (primarily dry mouth), share of the patient population (overactive bladder) | protection half-life against BANK-induced dyspnea (BANK-induced dyspnea; 2 mg/kg dose, duration of action studies) | ED50 (BANK-induced dyspnea; intravenously 30 min prior to challenge) | ED50 (BANK-induced dyspnea; oral administration 120 min before challenge) | Maximum efficacy (% protection) (BANK-induced dyspnea; intravenous, 0.3 μmol/kg) | Maximum efficacy (% protection) (BANK-induced dyspnea; oral dose of 3.0 μmol/kg) | Kb [1] | maximum efficacy ([2]; […] (1.8 mg/kg) against intravenous BANK (3 nmol/kg)) | activity in bladder contraction test ([2]; intravenously and orally, 0.2 to 5 μmol/kg body weight) | Duration of action ([2]; oral 1.2 μmol/kg) | half-life of action ([2]; oral 1.2 μmol/kg) | maximum efficacy ([2]; oral, 5 μmol/kg (2.5 mg/kg)) | IC50 (NK1 receptors) | rightward shift of the response curves for BANK ([3]; intravenously at 30 min before BANK) | rightward shift in the BANK-induced dose-response curve ([3]; oral 120 min before BANK) | Kb [4] | antagonism of relaxation induced by ASMSP (NK1 receptor; endothelium intact, phenylephrine-contracted) | selectivity, KB against NK1 receptor-mediated response versus NK2 receptor-mediated response (NK1 receptor; rabbit pulmonary artery) | Ki (human NK2 receptor) | untoward side-effects [5]
1 | CCN(CC)CC#CCOC(=O)C(O)(c1ccccc1)C1CCCCC1 (stereo not drawn) [oxybutinin] | approximately 78% | – | – | – | – | – | – | – | – | – | – | – | – | – | – | – | – | – | – | –
2 | CN(C[C@@H](CCN1CCC(N2CCCNC2=O)CC1)c1ccc(Cl)c(Cl)c1)C(=O)c1ccccc1 [the Compound, (S)-N-[2-(3,4-dichlorophenyl)-4-[4-(2-oxoperhydropyrimidin-1-yl)piperidino]butyl]-N-methylbenzamide] | – | 146 min | 0.13 µmol/kg and 0.07 mg/kg | 0.75 µmol/kg and 0.39 mg/kg | 95% | 100% | 2.4 nM | approximately 100% | active and selective | about 6 hr | ~3.5 h | about 80% | 187 nM | ~196 fold | ~481 fold | 0.891 nM | minor antagonism | 1,096 fold | 1.25 nM | has not been found to show any indication of any untoward side-effects
3 | Cc1ccc(O)c([C@H](CCN(C(C)C)C(C)C)c2ccccc2)c1 [tolterodine] | ~39% | – | – | – | – | – | – | – | – | – | – | – | – | – | – | – | – | – | – | –
